Reference: article PMC12020424, “Identification and Validation of Cyclic Peptides with Mucin-Selective, Location-Specific Binding in the Gastrointestinal Tract” (ACS Nano, 2025)
Bridge positions count the residues as written; N and C are the ends. Ends that are not written are not given here.

Assays:
[1] = target: T1, MUC5AC (Homo sapiens, UniProt P98088); assay: Phage display (CX7C library) against MUC5AC, Sanger sequencing; format: binding; details: MUC5AC phage screening, third round of panning, 16 sequenced candidates
Experimental: For each mucin of interest, 5 μg of mucin protein was diluted in 150 μL of Tris-buffered saline (TBS) and added to 2 wells of a microtiter plate. The plate was left overnight in a humidified, sealed container with agitation at 50 rpm. After the overnight mucin coating, the solution was poured out, and 300 μL of blocking buffer was added to the wells for 1 h. After the 1 h waiting period, the blocking buffer was poured out, and the wells were washed three times with 300 μL of Tris-buffered saline with TBST (TBS + 0.1% (v/v) Tween-20) to remove nonspecific binding on the mucin layer coating. Next, 5 μL of the C7C library diluted with 95 μL of TBST was added to each blocked well and placed on shaker for 45 min, before pouring out the nonbinding phage and washing the plate ten times with TBST. A 0.2 M glycine-HCl elution buffer (pH 2.2, 100 μL) was added to each well and placed on a shaker for 20 min to release the mucin-layer binding peptides on the plate as unamplified eluate, with the pH neutralized by 30 μL of neutralization buffer (1 M Tris-HCl, pH 9).
E. coli liquid cultures were prepared by adding E. coli cells to 20 mL of LB media and placing them in shaking conditions at 37 °C and 250 rpm for 2 h and 45 min. The unamplified eluate (1 μL of which was saved for titering) was added to the E. coli cultures under the same conditions for 4 h and 45 min for amplification. […]

[2] = target: T1, MUC5AC; assay: Phage ELISA on MUC5AC; format: binding; details: phage clones displaying the peptide, 10^7 PFU/μL, MUC5AC-coated plate, anti-M13/HRP, TMB, 450 nm, blank subtracted, three wells; vs random library and insertless phage
Text: We next sought to validate the binding efficiency of these identified phage clones. We tested phage clones displaying peptides M2.1, M2.2, M2.3, and M2.4 for binding to MUC2, and phage clones displaying peptides M5.1, M5.2, M5.3, and M5.4 for binding to MUC5AC. We utilized a bacteriophage enzyme-linked immunosorbent assay to test the binding of the peptide hits to the specific target mucins, MUC2 and MUC5AC (Figure 2d). The spectrophotometer reported absorbance values at 450 nm. The intensity of the absorbance signal is proportional to the amount of peptide-mucin binding present in each sample. The negative controls (library samples and insertless samples) served as references for nonspecific binding.
First, mucin was coated onto the surface of a plastic plate overnight using the same process as that performed for the original phage display. The next morning, three wells of each phage clone were prepared, with each phage solution having a titer of 10^7 PFU/μL to ensure a fair comparison between the clones. […]
However, instead of eluting the bound phage, 100 μL of 1:2000 anti-M13/HRP mouse monoclonal antibody was added to each well, and the antibody was allowed to incubate with the wells for 30 min. […] The resulting solutions were analyzed by absorbance spectroscopy at a wavelength of 450 nm to determine the relative amount of phage present in each well.

- % Prevalence [1]: 18.75%
Sequence: CTDKASSSC (disulfide 1-9 (inferred)) [Peptide M5.1, CX7C cyclic peptide hit for MUC5AC]
- phage ELISA binding vs negative controls [2]: significantly greater binding to MUC5AC than the random library and insertless phage
